Laboratory results taken from US11279715B2, “Process for removing radioactive isotopes from aqueous fluids by fluorine containing reagents, fluorine containing, water-insoluble salts of the radioactive isotopes, and their use as therapeutic agents” (priority 2016, dated 2022).
Where two headings read alike, the source gives them in different places.

Experiments:
[1] = Solubility of the salts in water and organic solvents; assay type: physicochemical
[2] = Isolation of 2 from water containing other metal salts; details: 450 mL water with CsCl 5·10^−5 mol/L plus KCl, PbCl2, CrCl3, CaCl2, FeCl3; reagent c≈4.75·10^−5 M
Description: To a water solution (450 mL), containing the inorganic salts listed below, was added [Na(OEt2)3][H2NB2(C6F5)6] (27.5 mg, 0.0214 mmol; FW=1285.4; c≈4.75·10^−5 M) and the suspension was stirred overnight. A brown precipitate resulted (color presumably arising from Fe(OH)3) which was filtered off and was washed with dichloromethane to extract 2. The solvent of the extract was evaporated to dryness to leave a colorless residue: yield 19.2 mg of 2 (0.0163 mmol, 76%; FW=1172.9), identified by comparison of the IR spectrum with that of pure 2.
List of Added Inorganic Salts

[3] = Isolation of Cs[H2NB2(C6F5)6] (2) from neat water containing CsCl
Description: [Na(OEt2)3][H2NB2(C6F5)6] (69.6 mg, 0.0541 mmol; FW=1285.4; c≈0.9·10^−4 M) was dissolved in 570 mL of water. CsCl (9.5 mg, 0.0564 mmol; FW=168.4) was added and after brief mixing the clear solution was left unstirred. Soon colorless crystals began to separate. The mixture was left overnight and the precipitate was isolated by filtration; yield of 2 42.1 mg (0.0359 mmol, 66%; FW=1172.9). The aqueous mother liquor was extracted once with 20 mL of CH2Cl2. Evaporation of the solvent gave an additional crop of 20 mg (0.0170 mmol, 32%). Total isolated yield was 62.1 mg (0.053 mmol; 98%). The IR spectra of the isolated solids were identical with that of pure Cs[H2NB2(C6F5)6] (2).

[4] = PB therapy, cited from earlier work
[5] = in vivo; cited from earlier work
[6] = Specificity of the anion for Cs^+ in aqueous solution; details: versus other cations
Excerpt: For [H2NB2(C6F5)6]^− and [(H3O2)B2(C6F5)6]^− the process appears 100% specific for cesium so that cesium is quantitatively and exclusively separated from all other cations in the aqueous solution. Thus, a single and fully selective separation step is necessary only to separate cesium from the other components in the form of the intermediate Cs[L]. In a second step, intermediate Cs[L] is converted into the desired product CsA, allowing recycling of [L].
The interest of the inventors in weakly coordinating anions (WCAs) has led them to synthesize the new cesium salt, Cs[H2NB2(C6F5)6] (2). The inventors realized that (2) is insoluble in water and that it is instantaneously formed by mixing any aqueous solution containing Cs^+ with virtually any source of the [H2NB2(C6F5)]^− anion. The reaction is 100% specific for Cs^+, since only in this case [H2NB2(C6F5)6]^− changes its usual asymmetric conformation to an “inverse C2 symmetric” conformation to form a specific 3D lattice.

Fc1c(F)c(F)c([B-]([NH2+][B-](c2c(F)c(F)c(F)c(F)c2F)(c2c(F)c(F)c(F)c(F)c2F)c2c(F)c(F)c(F)c(F)c2F)(c2c(F)c(F)c(F)c(F)c2F)c2c(F)c(F)c(F)c(F)c2F)c(F)c1F.[Cs+] [Compound 2, Cs[H2NB2(C6F5)6]]
solubility in CH2Cl2, THF, chloroform, Et2O and toluene ([1]; CH2Cl2, THF and solvents of low dielectric constant): dissolves well
solubility in MeOH ([1]; MeOH): only limited soluble
solubility in alkanes ([1]; alkanes): virtually insoluble
solubility in water [1]: virtually insoluble
solubility in water ([1]; listed as Cs[H2NB2(C6F5)6]): insoluble

CCOCC.CCOCC.CCOCC.Fc1c(F)c(F)c([B-]([NH2+][B-](c2c(F)c(F)c(F)c(F)c2F)(c2c(F)c(F)c(F)c(F)c2F)c2c(F)c(F)c(F)c(F)c2F)(c2c(F)c(F)c(F)c(F)c2F)c2c(F)c(F)c(F)c(F)c2F)c(F)c1F.[Na+] [[Na(OEt2)3][H2NB2(C6F5)6]]
yield of 2 isolated from water containing other metal salts [2]: 76%
yield of 2 precipitated from water ([3]; neat water 570 mL, reagent c≈0.9·10^−4 M, overnight, filtration): 66%
total isolated yield of 2 ([3]; neat water, precipitate plus one CH2Cl2 extraction of the mother liquor): 98%

Fc1c(F)c(F)c([B-](c2c(F)c(F)c(F)c(F)c2F)(c2c(F)c(F)c(F)c(F)c2F)c2c(F)c(F)c(F)c(F)c2F)c(F)c1F.[Cs+] [Compound 7, Cs[B(C6F5)4]]
solubility in water [1]: insoluble

[C-]#N.[C-]#N.[C-]#N.[C-]#N.[C-]#N.[C-]#N.[C-]#N.[C-]#N.[C-]#N.[C-]#N.[C-]#N.[C-]#N.[C-]#N.[C-]#N.[C-]#N.[C-]#N.[C-]#N.[C-]#N.[Fe+2].[Fe+2].[Fe+2].[Fe+3].[Fe+3].[Fe+3].[Fe+3] [Prussian blue, ferric hexacyanoferrate]
biological half-life of retention of cesium ([4]; adolescents): ~30 days
biological half-life of retention of cesium ([4]; adults): approximately 26 days
biological half-life of retention of cesium ([4]; children): ~24 days
absorption by the body via the bowels [5]: not absorbed by the body via the bowels to a noticeable extent

Cs[(C6F5)3B(OH2)—(HO)B(C6F5)3] [Compound 5]
solubility in water [1]: water insoluble
solubility in water ([1]; listed as Cs[H(OH)2B2(C6F5)6]): insoluble

[(H3O2)B2(C6F5)6]^−
specificity for cesium [6]: 100%

Fc1c(F)c(F)c([B-](c2c(F)c(F)c(F)c(F)c2F)(c2c(F)c(F)c(F)c(F)c2F)c2c(F)c(F)c(F)c(F)c2F)c(F)c1F.[Rb+] [Compound 8, Rb[B(C6F5)4]]
solubility in water [1]: water insoluble

Fc1c(F)c(F)c([B-](c2c(F)c(F)c(F)c(F)c2F)(c2c(F)c(F)c(F)c(F)c2F)c2c(F)c(F)c(F)c(F)c2F)c(F)c1F.[Tl+] [Compound 9, Tl[B(C6F5)4], reference compound]
solubility in water [1]: water insoluble

Fc1c(F)c(F)c([B-]([NH2+][B-](c2c(F)c(F)c(F)c(F)c2F)(c2c(F)c(F)c(F)c(F)c2F)c2c(F)c(F)c(F)c(F)c2F)(c2c(F)c(F)c(F)c(F)c2F)c2c(F)c(F)c(F)c(F)c2F)c(F)c1F [[H2NB2(C6F5)6]^−]
specificity for cesium [6]: 100%
